Experimental data taken from patent US10472347B2, “Aminopyrazine compounds with A2A antagonist properties” (Merck Sharp & Dohme Corp., priority 2014, dated 2019).
pKi: −log10 of the molar value.

What follows are compounds tested against T1, human A2a receptor (Homo sapiens, UniProt P29274) (assay: A2a competition binding assay, Scintillation Proximity technology). Conditions: membranes from HEK293 cells expressing human A2a receptor; Ki by Cheng-Prusoff equation.
T1 construct: purchased Perkin-Elmer RBHA2AM400UA; host or cells: HEK293 cells (membranes)
T1 sequence (P29274 whole entry): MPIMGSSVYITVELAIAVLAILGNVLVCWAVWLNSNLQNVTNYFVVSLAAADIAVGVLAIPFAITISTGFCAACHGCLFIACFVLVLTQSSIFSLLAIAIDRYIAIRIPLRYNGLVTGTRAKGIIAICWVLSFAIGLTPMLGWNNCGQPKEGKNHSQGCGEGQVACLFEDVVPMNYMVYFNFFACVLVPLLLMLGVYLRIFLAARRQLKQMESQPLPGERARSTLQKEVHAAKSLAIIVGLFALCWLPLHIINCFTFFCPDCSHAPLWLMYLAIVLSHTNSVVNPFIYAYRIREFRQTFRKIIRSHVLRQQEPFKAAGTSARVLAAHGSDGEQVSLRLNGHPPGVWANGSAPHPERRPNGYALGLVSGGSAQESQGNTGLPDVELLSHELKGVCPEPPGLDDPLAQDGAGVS
Summary of the method: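 SPA competition: 0.5 nM tritiated pyrazolotriazolopyrimidine ligand displaced by compound at 3000 to 0.15 nM, 1 h room temperature, human A2a HEK293 membranes pretreated with adenosine deaminase, PBS/10 mM MgCl2 buffer. CGS15943 1 μM defined non-specific binding; EC50 converted to Ki via Cheng-Prusoff.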

SMILES | pKi
CN(Cc1cccc2cccnc12)C(=O)c1nc(Cl)c(-n2nccn2)nc1N [Ex-290, 3-amino-6-chloro-N-methyl-N-(quinolin-8-ylmethyl)-5-(2H-1,2,3-triazol-2-yl)pyrazine-2-carboxamide] | 6.50
Nc1nc(-n2nccn2)c(Cl)nc1C(=O)N1CCc2cccc(Br)c2C1 [Ex-292, 3-[(8-bromo-3,4-dihydroisoquinolin-2(1H)-yl)carbonyl]-5-chloro-6-(2H-1,2,3-triazol-2-yl)pyrazin-2-amine] | 7.26
Nc1nc(-n2nccn2)c(Cl)nc1C(=O)NC1CCNc2ccccc21 (centres unmarked) [Ex-293, 3-amino-6-chloro-N-(1,2,3,4-tetrahydroquinolin-4-yl)-5-(2H-1,2,3-triazol-2-yl)pyrazine-2-carboxamide] | 6.97
COc1ccc(CCNC(=O)c2nc(Cl)c(-n3nccn3)nc2N)cc1OC [Ex-294, 3-amino-6-chloro-N-[2-(3,4-dimethoxyphenyl)ethyl]-5-(2H-1,2,3-triazol-2-yl)pyrazine-2-carboxamide] | 7.16
Nc1nc(-n2nccn2)c(Cl)nc1C(=O)NCc1cccc2cnccc12 [Ex-296, 3-amino-6-chloro-N-(isoquinolin-5-ylmethyl)-5-(2H-1,2,3-triazol-2-yl)pyrazine-2-carboxamide] | 7.45
Nc1nc(-n2nccn2)c(Cl)nc1C(=O)NCc1cccc2ccncc12 [Ex-297, 3-amino-6-chloro-N-(isoquinolin-8-ylmethyl)-5-(2H-1,2,3-triazol-2-yl)pyrazine-2-carboxamide] | 8.78
Nc1nc(-n2nccn2)c(Cl)nc1C(=O)NCc1cccc2nccnc12 [Ex-300, 3-amino-6-chloro-N-(quinoxalin-5-ylmethyl)-5-(2H-1,2,3-triazol-2-yl)pyrazine-2-carboxamide] | 7.35
Nc1nc(-n2nccn2)c(Cl)nc1C(=O)NCc1cnc2ccccn12 [Ex-305, 3-amino-6-chloro-N-(imidazo[1,2-a]pyridin-3-ylmethyl)-5-(2H-1,2,3-triazol-2-yl)pyrazine-2-carboxamide] | 7.31
Nc1nc(-n2nccn2)c(Cl)nc1C(=O)NCc1cn2ccsc2n1 [Ex-310, 3-amino-6-chloro-N-(imidazo[2,1-b][1,3]thiazol-6-ylmethyl)-5-(2H-1,2,3-triazol-2-yl)pyrazine-2-carboxamide] | 7.81
Nc1nc(-n2nccn2)c(Cl)nc1C(=O)N[C@@H](CO)c1ccccc1 [Ex-312, 3-amino-6-chloro-N-[(1R)-2-hydroxy-1-phenylethyl]-5-(2H-1,2,3-triazol-2-yl)pyrazine-2-carboxamide] | 6.22
Nc1nc(-n2nccn2)c(Cl)nc1C(=O)N[C@H](CO)c1ccccc1 [Ex-313, 3-amino-6-chloro-N-[(1S)-2-hydroxy-1-phenylethyl]-5-(2H-1,2,3-triazol-2-yl)pyrazine-2-carboxamide] | 7.64
Nc1nc(-n2nccn2)c(Cl)nc1C(=O)NCc1cccc2c1C(=O)NC2 [Ex-314, 3-amino-6-chloro-N-[(3-oxo-2,3-dihydro-1H-isoindol-4-yl)methyl]-5-(2H-1,2,3-triazol-2-yl)pyrazine-2-carboxamide] | 8.43
Nc1nc(-n2nccn2)c(Cl)nc1C(=O)N[C@@H]1C[C@@]1(F)c1ccccc1 [Ex-316, 3-amino-6-chloro-N-[(1R,2R)-2-fluoro-2-phenylcyclopropyl]-5-(2H-1,2,3-triazol-2-yl)pyrazine-2-carboxamide] | 7.17
Nc1nc(-n2nccn2)c(Cl)nc1C(=O)N[C@H]1C[C@@]1(F)c1ccccc1 [Ex-317, 3-amino-6-chloro-N-[(1S,2R)-2-fluoro-2-phenylcyclopropyl]-5-(2H-1,2,3-triazol-2-yl)pyrazine-2-carboxamide] | 5.66
COC(=O)[C@@H](CO)NC(=O)c1nc(Cl)c(-n2nccn2)nc1N [Ex-318, methyl N-{[3-amino-6-chloro-5-(2H-1,2,3-triazol-2-yl)pyrazin-2-yl]carbonyl}-D-serinate] | 6.50

Continued, values first:

pKi | SMILES
7.46 | Nc1nc(-n2nccn2)c(Cl)nc1C(=O)NCCc1ccccc1Br [Ex-289, 3-amino-N-[2-(2-bromophenyl)ethyl]-6-chloro-5-(2H-1,2,3-triazol-2-yl)pyrazine-2-carboxamide]
7.87 | Nc1nc(-n2nccn2)c(Cl)nc1C(=O)NCc1cnn2ccccc12 [Ex-295, 3-amino-6-chloro-N-(pyrazolo[1,5-a]pyridin-3-ylmethyl)-5-(2H-1,2,3-triazol-2-yl)pyrazine-2-carboxamide]
7.48 | Nc1nc(-n2nccn2)c(Cl)nc1C(=O)NCc1nc2ccccc2s1 [Ex-298, 3-amino-N-(1,3-benzothiazol-2-ylmethyl)-6-chloro-5-(2H-1,2,3-triazol-2-yl)pyrazine-2-carboxamide]
7.47 | Nc1nc(-n2nccn2)c(Cl)nc1C(=O)NCc1nc2ccccc2o1 [Ex-299, 3-amino-N-(1,3-benzoxazol-2-ylmethyl)-6-chloro-5-(2H-1,2,3-triazol-2-yl)pyrazine-2-carboxamide]
6.74 | Nc1nc(-n2nccn2)c(Cl)nc1C(=O)NCc1ccnc2ccccc12 [Ex-301, 3-amino-6-chloro-N-(quinolin-4-ylmethyl)-5-(2H-1,2,3-triazol-2-yl)pyrazine-2-carboxamide]
7.55 | Nc1nc(-n2nccn2)c(Cl)nc1C(=O)NCc1nc2ccccc2[nH]1 [Ex-302, 3-amino-N-(1H-benzimidazol-2-ylmethyl)-6-chloro-5-(2H-1,2,3-triazol-2-yl)pyrazine-2-carboxamide]
7.84 | Nc1ccccc1CNC(=O)c1nc(Cl)c(-n2nccn2)nc1N [Ex-303, 3-amino-N-(2-aminobenzyl)-6-chloro-5-(2H-1,2,3-triazol-2-yl)pyrazine-2-carboxamide]
8.44 | Nc1cccc(F)c1CNC(=O)c1nc(Cl)c(-n2nccn2)nc1N [Ex-304, 3-amino-N-(2-amino-6-fluorobenzyl)-6-chloro-5-(2H-1,2,3-triazol-2-yl)pyrazine-2-carboxamide]
7.31 | Nc1nc(-n2nccn2)c(Cl)nc1C(=O)NCc1ccc2ccccc2n1 [Ex-306, 3-amino-6-chloro-N-(quinolin-2-ylmethyl)-5-(2H-1,2,3-triazol-2-yl)pyrazine-2-carboxamide]
7.67 | Nc1nc(-n2nccn2)c(Cl)nc1C(=O)NCc1cc2ccccc2cn1 [Ex-307, 3-amino-6-chloro-N-(isoquinolin-3-ylmethyl)-5-(2H-1,2,3-triazol-2-yl)pyrazine-2-carboxamide]
7.46 | Nc1nc(-n2nccn2)c(Cl)nc1C(=O)NCc1cc2ccccc2[nH]1 [Ex-308, 3-amino-6-chloro-N-(1H-indol-2-ylmethyl)-5-(2H-1,2,3-triazol-2-yl)pyrazine-2-carboxamide]
6.75 | Nc1nc(-n2nccn2)c(Cl)nc1C(=O)NCc1cccc2ncccc12 [Ex-309, 3-amino-6-chloro-N-(quinolin-5-ylmethyl)-5-(2H-1,2,3-triazol-2-yl)pyrazine-2-carboxamide]
5.93 | Nc1nc(-n2nccn2)c(Cl)nc1C(=O)NCCc1cnccn1 [Ex-311, 3-amino-6-chloro-N-(2-pyrazin-2-ylethyl)-5-(2H-1,2,3-triazol-2-yl)pyrazine-2-carboxamide]
6.71 | Nc1nc(-n2nccn2)c(Cl)nc1C(=O)NCCOc1ccccc1 [Ex-315, 3-amino-6-chloro-N-(2-phenoxyethyl)-5-(2H-1,2,3-triazol-2-yl)pyrazine-2-carboxamide]
